Assay results reported in PubChem BioAssay (NCI).
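Five compound concentrations were applied to cells in 96-well plates for 48 hours; endpoints were derived by simple linear interpolation of the resulting dose-response curve. GI50 = concentration required for 50% inhibition of growth. The concentration for full growth arrest is given as TGI.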

Experiments:
Test in all cases: inhibition of tumour cell growth, NCI panel, 48 h
[1] = system: SW-620 colon
[2] = system: MOLT-4 leukemia
[3] = system: BT-549 breast
[4] = system: ACHN renal
[5] = system: PC-3 prostate
[6] = system: A498 renal
[7] = system: NCI/ADR-RES ovarian
[8] = system: RXF 393 renal
[9] = system: K-562 leukemia
[10] = system: RPMI-8226 leukemia
[11] = system: SR leukemia
[12] = system: OVCAR-3 ovarian
[13] = system: CCRF-CEM leukemia
[14] = system: UACC-257 melanoma
[15] = system: OVCAR-8 ovarian
[16] = system: MCF7 breast
[17] = system: MALME-3M melanoma
[18] = system: T-47D breast
[19] = system: UACC-62 melanoma
[20] = system: SF-539 CNS
[21] = system: SF-295 CNS
[22] = system: SK-MEL-28 melanoma
[23] = system: MDA-MB-435
[24] = system: SF-268 CNS
[25] = system: COLO 205 colon
[26] = system: LOX IMVI melanoma
[27] = system: IGROV1 ovarian
[28] = system: SK-MEL-5 melanoma
[29] = system: SN12C renal
[30] = system: U251 CNS
[31] = system: CAKI-1 renal
[32] = system: SNB-75 CNS
[33] = system: UO-31 renal
[34] = system: HCC-2998 colon
[35] = system: OVCAR-5 ovarian
[36] = system: NCI-H460 lung
[37] = system: OVCAR-4 ovarian
[38] = system: HCT-15 colon
[39] = system: SK-MEL-2 melanoma
[40] = system: 786-0 renal
[41] = system: HOP-62 NSCLC
[42] = system: DU-145 prostate
[43] = system: NCI-H23 lung
[44] = system: SNB-19 CNS
[45] = system: HT29 colon
[46] = system: NCI-H226 lung
[47] = system: HOP-92 NSCLC
[48] = system: M14 melanoma
[49] = system: HL-60(TB) leukemia
[50] = system: NCI-H522 lung
[51] = system: HS 578T breast
[52] = system: A549 NSCLC
[53] = system: TK-10 renal
[54] = system: MDA-MB-231 breast
[55] = system: KM12 colon
[56] = system: EKVX NSCLC
[57] = system: HCT-116 colon
[58] = system: SK-OV-3 ovarian

## COc1cc(-c2nc(SCCC(C)C)nc(Nc3ccc(S(N)(=O)=O)cc3)c2C#N)cc(OC)c1OC
[1]
  GI50: 3.08 µM
  TGI: > 100 µM
[2]
  GI50: 2.39 µM
  TGI: > 100 µM
[3]
  GI50: 2.12 µM
  TGI: 6.3 µM
[4]
  GI50: 2.79 µM
  TGI: > 100 µM
[5]
  GI50: 2.72 µM
  TGI: > 100 µM
[6]
  GI50: 1.89 µM
  TGI: 5.36 µM
[7]
  GI50: 3.03 µM
  TGI: > 100 µM
[8]
  GI50: 1.83 µM
  TGI: 3.97 µM
[9]
  GI50: 2.73 µM
  TGI: > 100 µM
[10]
  GI50: 1.73 µM
  TGI: 6.79 µM
[11]
  GI50: 1.91 µM
  TGI: 6.86 µM
[12]
  GI50: 2.38 µM
  TGI: 6.12 µM
[13]
  GI50: 2.88 µM
  TGI: > 100 µM
[14]
  GI50: 3.9 µM
  TGI: > 100 µM
[15]
  GI50: 4 µM
  TGI: > 100 µM
[16]
  GI50: 3.19 µM
  TGI: > 100 µM
[17]
  GI50: 1.6 µM
  TGI: 4.14 µM
[18]
  GI50: 2.26 µM
  TGI: > 100 µM
[19]
  GI50: 3 µM
  TGI: 22.9 µM
[20]
  GI50: 2.01 µM
  TGI: 5.22 µM
[21]
  GI50: 2.71 µM
  TGI: 7.35 µM
[22]
  GI50: 4.04 µM
  TGI: > 100 µM
[23]
  GI50: 3.15 µM
  TGI: > 100 µM
[24]
  GI50: 3.67 µM
  TGI: > 100 µM
[25]
  GI50: 2.06 µM
  TGI: 5.08 µM
[26]
  GI50: 1.91 µM
  TGI: 4.41 µM
[27]
  GI50: 3.39 µM
  TGI: > 100 µM
[28]
  GI50: 1.59 µM
  TGI: 3.01 µM
[29]
  GI50: 1.81 µM
  TGI: 3.51 µM
[30]
  GI50: 3.17 µM
  TGI: > 100 µM
[31]
  GI50: 4 µM
  TGI: > 100 µM
[32]
  GI50: 2.15 µM
  TGI: 54.2 µM
[33]
  GI50: 1.82 µM
  TGI: > 100 µM
[34]
  GI50: 3.22 µM
  TGI: > 100 µM
[35]
  GI50: 3.84 µM
  TGI: > 100 µM
[36]
  GI50: 2.8 µM
  TGI: 8.45 µM
[37]
  GI50: 3.45 µM
  TGI: > 100 µM
[38]
  GI50: 2.4 µM
  TGI: > 100 µM
[39]
  GI50: 2.47 µM
  TGI: 6.16 µM
[40]
  GI50: 2.16 µM
  TGI: 4.87 µM
[41]
  GI50: 4.12 µM
  TGI: > 100 µM
[42]
  GI50: 3.47 µM
  TGI: > 100 µM
[43]
  GI50: 2.92 µM
  TGI: 12.5 µM
[44]
  GI50: 5.38 µM
  TGI: > 100 µM
[45]
  GI50: 2.25 µM
  TGI: 5.13 µM
[46]
  GI50: 1.67 µM
  TGI: 4.64 µM
[47]
  GI50: 1.48 µM
  TGI: 4.47 µM
[48]
  GI50: 2.9 µM
  TGI: 24.7 µM
[49]
  GI50: 2.3 µM
  TGI: 5.86 µM
[50]
  GI50: 3.52 µM
  TGI: > 100 µM
[51]
  GI50: 2.21 µM
  TGI: 7.77 µM
[52]
  GI50: 3.46 µM
  TGI: > 100 µM
[53]
  GI50: 3.5 µM
  TGI: > 100 µM
[54]
  GI50: 2.19 µM
  TGI: 7.8 µM
[55]
  GI50: 2.2 µM
  TGI: 5.56 µM
[56]
  GI50: 3.42 µM
  TGI: > 100 µM
[57]
  GI50: 2.01 µM
  TGI: 4.85 µM

## O=C(/C=C/c1ccc(C(F)(F)F)cc1)c1ccc(Nc2nc(NCCO)nc(Nc3ccc(Cl)cc3)n2)cc1
[1]
  GI50: 2.17 µM
  TGI: 5.04 µM
[2]
  GI50: 3.56 µM
  TGI: 12.6 µM
[3]
  GI50: 3.07 µM
  TGI: 7.97 µM
[4]
  GI50: 4.81 µM
  TGI: 17 µM
[5]
  GI50: 2.99 µM
  TGI: 15 µM
[6]
  GI50: 1.67 µM
  TGI: 12.6 µM
[7]
  GI50: 5.58 µM
  TGI: 26 µM
[8]
  GI50: 1.82 µM
  TGI: 4.16 µM
[9]
  GI50: 2.83 µM
  TGI: > 100 µM
[10]
  GI50: 1.56 µM
  TGI: 5.43 µM
[11]
  GI50: 1.95 µM
  TGI: 8.74 µM
[12]
  GI50: 2.75 µM
  TGI: 8.12 µM
[13]
  GI50: 2.75 µM
  TGI: 8.24 µM
[14]
  GI50: 10.1 µM
  TGI: 31.2 µM
[15]
  GI50: 5.66 µM
  TGI: 31.3 µM
[16]
  GI50: 1.49 µM
  TGI: 5.56 µM
[17]
  GI50: 13.9 µM
  TGI: 28.5 µM
[18]
  GI50: 3.4 µM
  TGI: 26.6 µM
[19]
  GI50: 6.32 µM
  TGI: 19.5 µM
[20]
  GI50: 2.39 µM
  TGI: 6.62 µM
[21]
  GI50: 3.98 µM
  TGI: 14.7 µM
[22]
  GI50: 5.88 µM
  TGI: 18.3 µM
[23]
  GI50: 3.46 µM
  TGI: 12.8 µM
[24]
  GI50: 5.05 µM
  TGI: 18.7 µM
[25]
  GI50: 4.8 µM
  TGI: 17.3 µM
[26]
  GI50: 1.66 µM
  TGI: 3.22 µM
[27]
  GI50: 4.92 µM
  TGI: 16.2 µM
[28]
  GI50: 14 µM
  TGI: 29.6 µM
[29]
  GI50: 5.53 µM
  TGI: 17.5 µM
[30]
  GI50: 2.18 µM
  TGI: 5.57 µM
[31]
  GI50: 5.12 µM
  TGI: 18.8 µM
[32]
  GI50: 2.05 µM
  TGI: 8.71 µM
[33]
  GI50: 1.75 µM
  TGI: 4.39 µM
[34]
  GI50: 2.93 µM
  TGI: 8.17 µM
[35]
  GI50: 5.93 µM
  TGI: 18.8 µM
[58]
  GI50: 13.4 µM
  TGI: 34.3 µM
[36]
  GI50: 4 µM
  TGI: 13.6 µM
[37]
  GI50: 4.14 µM
  TGI: 15.5 µM
[38]
  GI50: 2.08 µM
  TGI: 5.92 µM
[39]
  GI50: 11.7 µM
  TGI: 24.5 µM
[40]
  GI50: 2.25 µM
  TGI: 5.36 µM
[41]
  GI50: 8.55 µM
  TGI: 22 µM
[42]
  GI50: 6.08 µM
  TGI: 18.7 µM
[43]
  GI50: 10.7 µM
  TGI: 26.2 µM
[45]
  GI50: 2.32 µM
  TGI: 6.37 µM
[46]
  GI50: 4.29 µM
  TGI: 18.7 µM
[47]
  GI50: 5.39 µM
  TGI: 49.4 µM
[48]
  GI50: 3.5 µM
  TGI: 13.4 µM
[49]
  GI50: 12.2 µM
  TGI: 51.8 µM
[50]
  GI50: 7.82 µM
  TGI: 23.6 µM
[51]
  GI50: 2.82 µM
  TGI: 15.6 µM
[52]
  GI50: 3.48 µM
  TGI: 13.5 µM
[54]
  GI50: 4.21 µM
  TGI: 16.1 µM
[55]
  GI50: 2.13 µM
  TGI: 4.84 µM
[56]
  GI50: 3.41 µM
  TGI: 14.5 µM
[57]
  GI50: 1.48 µM
  TGI: 2.83 µM
